Experiments:
Type in all cases: cell-based, human
[1] = system: SK-MEL-28; assay: SRB colorimetric assay of cell growth and viability, SK-MEL-28; settings: 48 hours exposure, SRB; for CC50: read-out: LC50 MEL-28
[2] = system: HeLa; assay: SRB colorimetric assay of cell growth and viability, HeLa; settings: 48 hours exposure, SRB; for CC50: read-out: LC50 HELA
[3] = system: HeLa-APL; assay: SRB colorimetric assay of cell growth and viability, HeLa-APL; settings: 48 hours exposure, SRB; for CC50: read-out: LC50 HELA-APL
[4] = system: LoVo; assay: SRB colorimetric assay of cell growth and viability, LoVo; settings: 48 hours exposure, SRB; for CC50: read-out: LC50 LOVO
[5] = system: SK-BR-3; assay: SRB colorimetric assay of cell growth and viability, SK-BR-3; settings: 48 hours exposure, SRB
[6] = system: LoVo-Dox; assay: SRB colorimetric assay of cell growth and viability, LoVo-Dox; settings: 48 hours exposure, SRB; for CC50: read-out: LC50 LOVO-DOX
Method in brief: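 Cells in RPMI 1640 with 10% FBS were seeded at 5×10^3 per well and left 18 hours drug-free before compounds (10 to 10^−8 μg/mL in DMSO:EtOH:PBS 0.5:0.5:99) were added for 48 hours. TCA-fixed cells were stained with SRB and read at 490 nm; triplicate wells gave GI, TGI and LC.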

[7] = system: PANC-1; assay: SRB colorimetric assay of cell growth and viability, PANC-1; settings: 48 hours exposure, SRB; for CC50: read-out: LC50 PANC-1
[8] = system: IGROV-1; assay: SRB colorimetric assay of cell growth and viability, IGROV-1; settings: 48 hours exposure, SRB
[9] = system: A-549; assay: SRB colorimetric assay of cell growth and viability, A-549; settings: 48 hours exposure, SRB; for GI50: read-out: GI50 A-549; for CC50: read-out: LC50 A-549
[10] = system: IGROV-ET; assay: SRB colorimetric assay of cell growth and viability, IGROV-ET; settings: 48 hours exposure, SRB; for CC50: read-out: LC50 IGROV-ET
[11] = system: DU-145; assay: SRB colorimetric assay of cell growth and viability, DU-145; settings: 48 hours exposure, SRB
[12] = system: LNCaP; assay: SRB colorimetric assay of cell growth and viability, LNCaP; settings: 48 hours exposure, SRB; for GI50: read-out: GI50 LN-caP; for CC50: read-out: LC50 LN-caP
[13] = system: HT-29; assay: SRB colorimetric assay of cell growth and viability, HT-29; settings: 48 hours exposure, SRB; for GI50: read-out: GI50 HT-29; for CC50: read-out: LC50 HT-29

Row | SMILES | GI50 [1] [nM] | TGI MEL-28 [1] [Molar] | CC50 [1] [nM] | GI50 [2] [nM] | TGI HELA [2] [Molar] | GI50 [3] [nM] | TGI HELA-APL [3] [Molar] | CC50 [3] [nM] | GI50 [4] [nM] | TGI LOVO [4] [Molar] | CC50 [4] [nM] | GI50 [5] [nM] | LC50 [5] [nM] | TGI SK-BR-3 [5] [Molar] | GI50 [6] [nM] | TGI LOVO-DOX [6] [Molar] | CC50 [6] [nM] | GI50 [7] [nM] | TGI PANC-1 [7] [Molar] | CC50 [7] [nM] | further results
1 | C/C=C1\NC(=O)[C@H](Cc2c(F)c(F)c(F)c(F)c2F)NC(=O)[C@@H](C(C)C)NC(=O)[C@@H]([C@@H](C)CC)NC(=O)[C@H](NC(=O)[C@H](NC(=O)[C@H](CCCN)NC(=O)[C@H]2CCCN2C(=O)[C@H](NC(=O)[C@@H](NC(=O)[C@@H](NC(=O)[C@H](NC(=O)CC[C@@H](C)CC)C(C)C)[C@@H](C)O)C(C)C)C(C)C)[C@@H](C)CC)[C@@H](C)OC(=O)[C@H](C(C)C)NC1=O [Compound 71, [Phe(F5)^3, (4S)-MeHex^14]-KF] | 1520 | 2.40E−06 | 3800 | 836 | 1.63E−06 | 1330 | 2.22E−06 | 3700 | 166 | 2.77E−07 | 462 | 228 | 554 | 3.56E−07 | 184 | 2.90E−07 | 456 | 1560 | 4.41E−06 | 6380 | CC50 [2]: 3160 nM; GI50 [8]: 526 nM; LC50 (concentration causing 50% net cell killing) [8]: 2720 nM; TGI IGROV [8]: 1.21E−06 Molar; TGI A-549 [9]: 2.62E−06 Molar; GI50 [9]: 1750 nM; CC50 [9]: 3920 nM; GI50 [10]: 443 nM; TGI IGROV-ET [10]: 5.35E−07 Molar; CC50 [10]: 848 nM; GI50 [11]: 1220 nM; LC50 (concentration causing 50% net cell kill) [11]: 3640 nM; TGI DU-145 [11]: 2.11E−06 Molar; TGI LN-caP [12]: 1.12E−06 Molar; GI50 [12]: 394 nM; CC50 [12]: 2700 nM; TGI HT-29 [13]: 9.82E−07 Molar; GI50 [13]: 330 nM; CC50 [13]: 267 nM
2 | C/C=C1\NC(=O)[C@H](Cc2ccc(F)cc2)NC(=O)[C@@H](C(C)C)NC(=O)[C@@H]([C@@H](C)CC)NC(=O)[C@H](NC(=O)[C@H](NC(=O)[C@H](CCCN)NC(=O)[C@H]2CCCN2C(=O)[C@H](NC(=O)[C@@H](NC(=O)[C@@H](NC(=O)[C@H](NC(=O)CC[C@@H](C)CC)C(C)C)[C@@H](C)O)C(C)C)C(C)C)[C@@H](C)CC)[C@@H](C)OC(=O)[C@H](C(C)C)NC1=O [Compound 74, [Phe(4-F)^3, (4S)-MeHex^14]-KF] | 829 | 1.64E−06 | 3230 | 214 | 3.78E−07 | 675 | 1.46E−06 | 3150 | 139 | 2.35E−07 | 395 | 213 | 495 | 3.24E−07 | 153 | 3.09E−07 | 624 | 1080 | 1.98E−06 | 3600 | GI50 [8]: 206 nM; LC50 (concentration causing 50% net cell killing) [8]: 943 nM; TGI IGROV [8]: 3.88E−07 Molar; TGI A-549 [9]: 1.76E−06 Molar; GI50 [9]: 956 nM; CC50 [9]: 3230 nM; GI50 [10]: 212 nM; TGI IGROV-ET [10]: 3.18E−07 Molar; CC50 [10]: 477 nM; GI50 [11]: 796 nM; LC50 (concentration causing 50% net cell kill) [11]: 3250 nM; TGI DU-145 [11]: 1.61E−06 Molar; TGI LN-caP [12]: 1.02E−06 Molar; GI50 [12]: 402 nM; CC50 [12]: 2590 nM; TGI HT-29 [13]: 2.61E−07 Molar; GI50 [13]: 137 nM; CC50 [13]: 499 nM
3 | C/C=C1\NC(=O)[C@H](Cc2ccc(Cl)c(Cl)c2)NC(=O)[C@@H](C(C)C)NC(=O)[C@@H]([C@@H](C)CC)NC(=O)[C@H](NC(=O)[C@H](NC(=O)[C@H](CCCN)NC(=O)[C@H]2CCCN2C(=O)[C@H](NC(=O)[C@@H](NC(=O)[C@@H](NC(=O)[C@H](NC(=O)CC[C@@H](C)CC)C(C)C)[C@@H](C)O)C(C)C)C(C)C)[C@@H](C)CC)[C@@H](C)OC(=O)[C@H](C(C)C)NC1=O [Compound 70, [Phe(3,4-Cl2)^3, (4S)-MeHex^14]-KF] | 120 | 2.39E−07 | 475 | 125 | 2.22E−07 | 259 | 7.63E−07 | 2240 | 68.5 | 4.11E−07 | 1730 | 52.8 | 299 | 1.18E−08 | 28.5 | 8.15E−08 | 612 | 1000 | 1.85E−06 | 3420 | CC50 [2]: 397 nM; GI50 [8]: 182 nM; LC50 (concentration causing 50% net cell killing) [8]: 487 nM; TGI IGROV [8]: 2.97E−07 Molar; TGI A-549 [9]: 3.32E−07 Molar; GI50 [9]: 183 nM; CC50 [9]: 604 nM; GI50 [10]: 112 nM; TGI IGROV-ET [10]: 2.09E−07 Molar; CC50 [10]: 387 nM; GI50 [11]: 142 nM; LC50 (concentration causing 50% net cell kill) [11]: 465 nM; TGI DU-145 [11]: 2.57E−07 Molar; TGI LN-caP [12]: 2.08E−07 Molar; GI50 [12]: 66.6 nM; CC50 [12]: 6470 nM; TGI HT-29 [13]: 2.13E−07 Molar; GI50 [13]: 111 nM; CC50 [13]: 412 nM
4 | C/C=C1\NC(=O)[C@H](Cc2ccc([N+](=O)[O-])cc2)NC(=O)[C@@H](C(C)C)NC(=O)[C@@H]([C@@H](C)CC)NC(=O)[C@H](NC(=O)[C@H](NC(=O)[C@H](CCCN)NC(=O)[C@H]2CCCN2C(=O)[C@H](NC(=O)[C@@H](NC(=O)[C@@H](NC(=O)[C@H](NC(=O)CC[C@@H](C)CC)C(C)C)[C@@H](C)O)C(C)C)C(C)C)[C@@H](C)CC)[C@@H](C)OC(=O)[C@H](C(C)C)NC1=O [Compound 73, [Phe(4-NO2)^3, (4S)-MeHex^14]-KF] | 223 | 4.71E−07 | 1480 | 173 | 2.80E−07 | 521 | 1.30E−06 | 2950 | 112 | 2.04E−07 | 372 | 150 | 574 | 2.94E−07 | 33.5 | 9.46E−08 | 255 | 952 | 1.85E−06 | 3580 | CC50 [2]: 450 nM; GI50 [8]: 173 nM; LC50 (concentration causing 50% net cell killing) [8]: 488 nM; TGI IGROV [8]: 2.90E−07 Molar; TGI A-549 [9]: 1.24E−06 Molar; GI50 [9]: 532 nM; CC50 [9]: 2760 nM; GI50 [10]: 229 nM; TGI IGROV-ET [10]: 3.26E−07 Molar; CC50 [10]: 467 nM; GI50 [11]: 233 nM; LC50 (concentration causing 50% net cell kill) [11]: 2040 nM; TGI DU-145 [11]: 6.57E−07 Molar; TGI LN-caP [12]: 8.41E−07 Molar; GI50 [12]: 377 nM; CC50 [12]: 2320 nM; TGI HT-29 [13]: 2.32E−07 Molar; GI50 [13]: 127 nM; CC50 [13]: 426 nM

Reference: patent publication US20070117743A1, “New antitumoral compounds” (priority 2003, published 2007)
